{
  "source": "patent US4051237A",
  "about": "“Glycopeptide antibiotics Bu-2231 A and B and process for producing same” (priority 1975, dated 1977)",
  "key": {"[1]": {"conditions": "mice, sc, up to a dose of 50 mg./kg.", "procedure": "The acute toxicity of copper-free Bu-2231 A and B was determined in mice by a single subcutaneous injection. Groups of 3 mice were used for each dose level and the body weight was recorded for 16 days."}, "[2]": {"system": "Walker 256 carcinosarcoma in ascitic form", "conditions": "for Effect MST %T/C / MST Days / Average Weight Change / Survivors Day 5: Exp. #5501; for MST Days: Bu-2231 A and B as copper-free formate salts; for Average Weight Change: recorded Day 5; for Survivors Day 5: toxicity evaluation; for fold greater potency (vs bleomycin): Table II, copper-free formate salts"}, "Lewis Lung carcinoma": {"system": "Lewis Lung carcinoma", "conditions": "for Effect MST %T/C / MST Days / Survivors Day 5: Exp. #55; for Survivors Day 5: toxicity evaluation"}, "[3]": {"system": "Bacillus subtilis PCI-219", "assay": "Paper disc-agar diffusion method"}, "[4]": {"conditions": "10 mcg/kg/day ip once daily for 8 days"}, "[5]": {"conditions": "40 mcg/kg/day ip once daily for 8 days"}, "[6]": {"conditions": "160 mcg/kg/day ip once daily for 8 days"}, "[7]": {"conditions": "640 mcg/kg/day ip once daily for 8 days"}, "[8]": {"conditions": "0.5 mg/kg/day ip once daily for 9 days"}, "[9]": {"conditions": "1 mg/kg/day ip once daily for 9 days"}, "[10]": {"conditions": "2 mg/kg/day ip once daily for 9 days"}, "[11]": {"conditions": "4 mg/kg/day ip once daily for 9 days"}, "[12]": {"conditions": "8 mg/kg/day ip once daily for 9 days"}},
  "note": "Like-named read-outs stand apart in the source and are kept apart here.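 For Average Weight Change in this document: female SD rats bearing intraperitoneally implanted ascites tumor cells, treated ip once a day for 8 days beginning on Day 1.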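 For fold greater potency (vs bleomycin) in this document: female SD rats bearing intraperitoneally implanted ascites tumor cells, treated ip once a day for 8 days beginning on Day 1.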",
  "data": [
    {"smiles": "Cc1c(N)nc([C@H](CC(N)=O)NC[C@@H](N)C(N)=O)nc1C(=O)N[C@H](C(=O)N[C@H](C)[C@@H](O)CC(=O)N[C@@H](C(=O)NC(O[C@@H]1O[C@@H](C)[C@@H](N)[C@@H](O)[C@H]1O)C(O)c1nc(-c2nc(C(=O)NCCCNCCCCN)cs2)cs1)[C@@H](C)O)C(O[C@@H]1O[C@@H](CO)[C@H](O)[C@@H](O)[C@@H]1O[C@H]1O[C@H](CO)[C@@H](O)[C@@H](OC(N)=O)[C@@H]1O)c1cnc[nH]1", "note": "(stereo partly shown) [Bu-2231 B]", "values": [
      {"measurement": "death in acute toxicity test", "setting": "[1]", "result": "No death occurred"},
      {"measurement": "Effect MST %T/C", "setting": "[2]; [4]", "result": 114, "unit": "%"},
      {"measurement": "MST Days", "setting": "[2]; [4]", "result": 8.0, "unit": "days"},
      {"measurement": "Average Weight Change", "setting": "[2]; 10 mcg/kg/day", "result": "+36.5 g."},
      {"measurement": "Survivors Day 5", "setting": "[2]; 10 mcg/kg/day", "result": "6/6"},
      {"measurement": "Effect MST %T/C", "setting": "[2]; [5]", "result": 157, "unit": "%"},
      {"measurement": "MST Days", "setting": "[2]; [5]", "result": 11.0, "unit": "days"},
      {"measurement": "Survivors Day 5", "setting": "[2]; 40 mcg/kg/day", "result": "6/6"},
      {"measurement": "Effect MST %T/C", "setting": "[2]; [6]", "result": 186, "unit": "%"},
      {"measurement": "MST Days", "setting": "[2]; [6]", "result": 13.0, "unit": "days"},
      {"measurement": "Average Weight Change", "setting": "[2]; 160 mcg/kg/day", "result": "+36.5 g."},
      {"measurement": "Survivors Day 5", "setting": "[2]; 160 mcg/kg/day", "result": "6/6"},
      {"measurement": "Effect MST %T/C", "setting": "[2]; [7]", "result": 186, "unit": "%"},
      {"measurement": "MST Days", "setting": "[2]; [7]", "result": 13.0, "unit": "days"},
      {"measurement": "Average Weight Change", "setting": "[2]; 640 mcg/kg/day", "result": "+10.7 g."},
      {"measurement": "Survivors Day 5", "setting": "[2]; 640 mcg/kg/day", "result": "6/6"},
      {"measurement": "fold greater potency (vs bleomycin)", "setting": "[2]", "result": 4, "unit": "fold"},
      {"measurement": "Effect MST %T/C", "setting": "Lewis Lung carcinoma; [8]", "result": 102, "unit": "%"},
      {"measurement": "MST Days", "setting": "Lewis Lung carcinoma; [8]", "result": 22.5, "unit": "days"},
      {"measurement": "Survivors Day 5", "setting": "Lewis Lung carcinoma; 0.5 mg/kg/day", "result": "6/6"},
      {"measurement": "Effect MST %T/C", "setting": "Lewis Lung carcinoma; [9]", "result": 134, "unit": "%"},
      {"measurement": "MST Days", "setting": "Lewis Lung carcinoma; [9]", "result": 29.5, "unit": "days"},
      {"measurement": "Survivors Day 5", "setting": "Lewis Lung carcinoma; 1 mg/kg/day", "result": "6/6"},
      {"measurement": "Effect MST %T/C", "setting": "Lewis Lung carcinoma; [10]", "result": 136, "unit": "%"},
      {"measurement": "MST Days", "setting": "Lewis Lung carcinoma; [10]", "result": 30.0, "unit": "days"},
      {"measurement": "Survivors Day 5", "setting": "Lewis Lung carcinoma; 2 mg/kg/day", "result": "6/6"},
      {"measurement": "Effect MST %T/C", "setting": "Lewis Lung carcinoma; [11]", "result": 48, "unit": "%"},
      {"measurement": "MST Days", "setting": "Lewis Lung carcinoma; [11]", "result": 10.5, "unit": "days"},
      {"measurement": "Survivors Day 5", "setting": "Lewis Lung carcinoma; 4 mg/kg/day", "result": "6/6"},
      {"measurement": "Effect MST %T/C", "setting": "Lewis Lung carcinoma; [12]", "result": 27, "unit": "%"},
      {"measurement": "MST Days", "setting": "Lewis Lung carcinoma; [12]", "result": 6.0, "unit": "days"},
      {"measurement": "Survivors Day 5", "setting": "Lewis Lung carcinoma; 8 mg/kg/day", "result": "5/6"},
      {"measurement": "activity against Lewis Lung Carcinoma (T/C >= 125 criterion)", "setting": "Lewis Lung carcinoma; doses of 2 and 1 mg./kg.", "result": "active"},
      {"measurement": "solubility", "setting": "ethanol", "result": "slightly soluble"},
      {"measurement": "solubility", "setting": "methanol", "result": "soluble"},
      {"measurement": "solubility", "setting": "other organic solvents", "result": "practically insoluble"},
      {"measurement": "solubility", "setting": "water", "result": "soluble"},
      {"measurement": "activity against B. subtilis PCI-219", "setting": "[3]", "result": "active"}
    ]},
    {"smiles": "Cc1c(N)nc([C@H](CC(N)=O)NC[C@H](N)C(N)=O)nc1C(=O)N[C@H](C(=O)N[C@H](C)[C@@H](O)CC(=O)N[C@H](C(=O)NC(O[C@@H]1O[C@@H](C)[C@@H](N)[C@@H](O)[C@H]1O)C(O)c1nc(-c2nc(C(=O)NCCCC(N)CC(=O)NCCCNCCCCN)cs2)cs1)[C@@H](C)O)[C@H](O[C@@H]1O[C@@H](CO)[C@@H](O)[C@H](O)[C@@H]1O[C@H]1O[C@H](CO)[C@@H](O)[C@H](OC(N)=O)[C@@H]1O)c1c[nH]cn1", "note": "(stereo partly shown) [Bu-2231 A]", "values": [
      {"measurement": "Effect MST %T/C", "setting": "[2]; [4]", "result": 129, "unit": "%"},
      {"measurement": "MST Days", "setting": "[2]; [4]", "result": 9.0, "unit": "days"},
      {"measurement": "Survivors Day 5", "setting": "[2]; 10 mcg/kg/day", "result": "6/6"},
      {"measurement": "Effect MST %T/C", "setting": "[2]; [5]", "result": 157, "unit": "%"},
      {"measurement": "MST Days", "setting": "[2]; [5]", "result": 11.0, "unit": "days"},
      {"measurement": "Survivors Day 5", "setting": "[2]; 40 mcg/kg/day", "result": "6/6"},
      {"measurement": "Effect MST %T/C", "setting": "[2]; [6]", "result": 179, "unit": "%"},
      {"measurement": "MST Days", "setting": "[2]; [6]", "result": 12.5, "unit": "days"},
      {"measurement": "Average Weight Change", "setting": "[2]; 160 mcg/kg/day", "result": "+28.8 g."},
      {"measurement": "Survivors Day 5", "setting": "[2]; 160 mcg/kg/day", "result": "6/6"},
      {"measurement": "Effect MST %T/C", "setting": "[2]; [7]", "result": 250, "unit": "%"},
      {"measurement": "MST Days", "setting": "[2]; [7]", "result": 17.5, "unit": "days"},
      {"measurement": "Survivors Day 5", "setting": "[2]; 640 mcg/kg/day", "result": "6/6"},
      {"measurement": "fold greater potency (vs bleomycin)", "setting": "[2]", "result": 4, "unit": "fold"},
      {"measurement": "activity against Lewis Lung Carcinoma (T/C >= 125 criterion)", "setting": "Lewis Lung carcinoma; 1 mg./kg.", "result": "just below an active level"},
      {"measurement": "Effect MST %T/C", "setting": "Lewis Lung carcinoma; [8]", "result": 120, "unit": "%"},
      {"measurement": "MST Days", "setting": "Lewis Lung carcinoma; [8]", "result": 26.5, "unit": "days"},
      {"measurement": "Survivors Day 5", "setting": "Lewis Lung carcinoma; 0.5 mg/kg/day", "result": "6/6"},
      {"measurement": "Effect MST %T/C", "setting": "Lewis Lung carcinoma; [9]", "result": 123, "unit": "%"},
      {"measurement": "MST Days", "setting": "Lewis Lung carcinoma; [9]", "result": 27.0, "unit": "days"},
      {"measurement": "Survivors Day 5", "setting": "Lewis Lung carcinoma; 1 mg/kg/day", "result": "6/6"},
      {"measurement": "Effect MST %T/C", "setting": "Lewis Lung carcinoma; [10]", "result": 114, "unit": "%"},
      {"measurement": "MST Days", "setting": "Lewis Lung carcinoma; [10]", "result": 25.0, "unit": "days"},
      {"measurement": "Survivors Day 5", "setting": "Lewis Lung carcinoma; 2 mg/kg/day", "result": "6/6"},
      {"measurement": "Effect MST %T/C", "setting": "Lewis Lung carcinoma; [11]", "result": 32, "unit": "%"},
      {"measurement": "MST Days", "setting": "Lewis Lung carcinoma; [11]", "result": 7.0, "unit": "days"},
      {"measurement": "Survivors Day 5", "setting": "Lewis Lung carcinoma; 4 mg/kg/day", "result": "6/6"},
      {"measurement": "Effect MST %T/C", "setting": "Lewis Lung carcinoma; [12]", "result": 27, "unit": "%"},
      {"measurement": "MST Days", "setting": "Lewis Lung carcinoma; [12]", "result": 6.0, "unit": "days"},
      {"measurement": "Survivors Day 5", "setting": "Lewis Lung carcinoma; 8 mg/kg/day", "result": "6/6"},
      {"measurement": "solubility", "setting": "ethanol", "result": "slightly soluble"},
      {"measurement": "solubility", "setting": "methanol", "result": "soluble"},
      {"measurement": "solubility", "setting": "other organic solvents", "result": "practically insoluble"},
      {"measurement": "solubility", "setting": "water", "result": "soluble"},
      {"measurement": "activity against B. subtilis PCI-219", "setting": "[3]", "result": "active"}
    ]}
  ]
}
